Reference: US12263143B2, “Ionic channel modulation as a method for treating tumors through inflammasome activation” (priority 2019, dated 2025)

Legend:
two tumor types = conditions: anti-PD-1 resistant mice, WO2018203262A1; cited from earlier work
inflammasome (NLRP3) = conditions: prior application WO2018203262A1; cited from earlier work
TORID = TORID (Homo sapiens, UniProt Q3YBM2); conditions: prior application WO2018203262A1; cited from earlier work
NLRP3 inflammasome = NLRP3 inflammasome activation in LPS/ATP-treated BMDCs, IL-1β in culture supernatant by ELISA; type: cell-based; conditions: mouse BMDCs, LPS 0.25 μg/ml for 3 hr and ATP 0.5 mM, vs vehicle control (DMSO)
Protocol: (§1) Triggering inflammasome activation: Mouse bone marrow-derived dendritic cells (BMDCs) are treated with LPS and ATP to trigger NLRP3 inflammasome activation in the presence of vehicle control (DMSO) or the indicated ion channels modulators. IL-1β is measured in the culture supernatant by ELISA. • [IL-1β was used to measure the degree of inflammasome activation] • b. Inhibiting TORID-dependent ion flux: CHO-7 cells were transfected with TORID-1 and TORID-2 plasmids. Cells were then loaded with the Na^+-sensitive fluorescent dye-ANG-2-. ANG-2 mean fluorescence intensity (MFI) subtracting in each condition the MFI obtained in Na+-free buffer substituted with NMDG+ is shown. Cells left untreated or treated with the indicated drugs were studied • [MFI was used to measure the degree of inhibition of TORID-dependent ion flux.
(§2) IL-1β was measured in the culture supernatant by ELISA. • B CHO-7 cells were transfected with Tmem176b (TORID-1) and Tmem176a (TORID-2)-mcherry-coding pSecTag2B plasmids. Cells were then loaded with the Na^+-sensitive fluorescent dye Asante NaTRIUM Green 2 (ANG-2). ANG-2 mean fluorescence intensity (MFI) subtracting in each condition the MFI obtained in Na^+-free buffer substituted with NMDG^+ is shown. Cells left untreated or treated with the indicated drugs were studied.

[1] = test system: Tmem176b (TORID-1) and Tmem176a (TORID-2); assay: TORID-dependent ion flux, ANG-2 Na+-sensitive dye MFI in transfected CHO-7 cells; type: cell-based; conditions: CHO-7 cells transfected with Tmem176b and Tmem176a-mcherry pSecTag2B plasmids, vs untreated cells
Protocol: as §1, §2

Chain of TORID (Q3YBM2 whole entry): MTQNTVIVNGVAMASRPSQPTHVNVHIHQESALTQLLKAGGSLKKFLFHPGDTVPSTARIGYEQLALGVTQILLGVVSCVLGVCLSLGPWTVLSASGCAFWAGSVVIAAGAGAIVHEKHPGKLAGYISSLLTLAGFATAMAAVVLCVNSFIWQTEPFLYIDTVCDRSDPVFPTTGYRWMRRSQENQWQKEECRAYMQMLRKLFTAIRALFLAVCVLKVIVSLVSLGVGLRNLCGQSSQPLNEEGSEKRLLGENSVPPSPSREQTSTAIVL

Row | Structure (SMILES) | rate of survival (two tumor types) | inflammasome (NLRP3) expression (inflammasome (NLRP3)) | TORID activity (TORID) | NLRP3 inflammasome activation (IL-1β in culture supernatant by ELISA) (NLRP3 inflammasome) | TORID activity (ANG-2 MFI, Na+-free NMDG+ buffer MFI subtracted) [1]
1 | COC(=O)C1=C(C)NC(C)=C([N+](=O)[O-])C1c1ccccc1C(F)(F)F (single isomer, unassigned; (+)) [(+)BAY K8644, Methyl 2,6-dimethyl-5-nitro-4-[2-(trifluoromethyl)phenyl]-1,4-dihydropyridine-3-carboxylate] | higher rate of survival | increased inflammasome (NLRP3) expression | inhibited TORID activity | – | –
2 | CCN1C[C@]2(COC)[C@H](O)C[C@H](OC)[C@@]34[C@@H]5C[C@@]6(O)[C@H](OC(=O)c7ccccc7)[C@@H]5[C@@](OC(C)=O)([C@@H]([C@H](OC)[C@H]23)[C@@H]14)[C@@H](O)[C@@H]6OC [Aconitine] | – | – | – | enhance NLRP3 inflammasome activation | inhibit TORID activity
3 | CCN(CC)CC(=O)Nc1c(C)cccc1C [Lidocaine] | – | – | – | enhance NLRP3 inflammasome activation | inhibit TORID activity
4 | CCN(CC)CCNC(=O)c1ccc(N)cc1 [Procainamide] | – | – | – | enhance NLRP3 inflammasome activation | inhibit TORID activity
